Assay results taken from article PMC6150311, “Proline-Based Carbamates as Cholinesterase Inhibitors” (Molecules : A Journal of Synthetic Chemistry and Natural …, 2017).

Columns and labels:
BChE from equine serum = molecular target: T1, BChE from equine serum (Equus caballus, UniProt P81908); experiment: In vitro BChE inhibition, modified Ellman's method; assay type: biochemical; settings: for SI (index selectivity) = IC50 (AChE)/IC50 (BChE): ratio AChE/BChE, higher = more selective to BChE
T1 construct: BChE (from equine serum); purchased Sigma, St. Louis, MO, USA; host or cells: equine serum
Description: (§1) The ability of all prepared compounds to inhibit AChE from electric eel (Electrophorus electricus) and BChE from equine serum (both purchased from Sigma, St. Louis, MO, USA) was determined in vitro using a modified Ellman’s method. […] The Ellman’s method is widely used for measuring cholinesterase activity and the effectivity of ChEIs. It is a simple, rapid and direct method to determine SH and –S–S– groups content in proteins. Cholinesterase activity is measured indirectly by quantifying the concentration of 5-thio-2-nitrobenzoic acid (TNB) ion formed in the reaction between disulfide reagent 5,5′-dithiobis-2-nitrobenzoic acid (DTNB) and thiocholine, a product of substrate (i.e., acetylthiocholine, ATCh) hydrolysis catalyzed by cholinesterase.
(§2) All tested compounds were dissolved in DMSO (concentration 0.01 M) and diluted in demineralized water (concentrations 0.001 M and 0.0001 M). The ability of tested compounds to inhibit AChE (from electric eel) and BChE (from equine serum) was determined using the modified Ellman’s method at 25 °C in the presence of phosphate buffered saline (PBS, 0.1 M, pH 7.4) in a glass cuvette with 1 cm optical path. The enzyme activity in total reaction mixture (2 mL) was 0.2 U/mL, the concentration of substrate ATCh 40 μM and the concentration of DTNB 0.1 mM for all reactions. The IC50 value was obtained from the dependence of v0/vi on the concentration of the tested compound (inhibitor), where v0 is the reaction rate of uninhibited reaction and vi is the reaction rate of inhibited reaction (for the given concentration of the inhibitor). First, v0 was determined. Into the cuvette PBS (0.1 M, pH 7.4), DTNB and ATCh were placed. The enzymatic reaction was started by adding the enzyme. […] The measurement was performed in triplicate at least, and average v0 was determined. Then, vi (for the given concentration of the inhibitor) was determined. Into the cuvette DTNB, ATCh, a chosen volume of the suitably diluted inhibitor (to achieve the required concentration of the inhibitor in the total reaction mixture) and a certain volume of PBS (to achieve the total volume of the reaction mixture 2 mL after adding the enzyme) were placed. The enzymatic reaction was started by adding the enzyme. […] For determination of IC50 values, twelve different concentrations of inhibitor were used and each measurement was performed in triplicate at least.

[1] = molecular target: T2, AChE from electric eel (Electrophorus electricus) (Electrophorus electricus, UniProt O42275); experiment: In vitro AChE inhibition, modified Ellman's method; assay type: biochemical
T2 construct: AChE (from electric eel) and BChE (from equine serum); purchased Sigma, St. Louis, MO, USA; host or cells: electric eel (animal source)
Description: as §1, §2

[2] = tested on: human monocytic leukemia THP-1 cells; experiment: In vitro cytotoxicity assay (WST-1); assay type: cell-based; settings: 24 h, highest tested concentration 30 μM, read-out: tox. IC50
Description: The cytotoxicity was evaluated as the IC50 value (compound concentration causing 50% inhibition of cell population proliferation) (see Table 1). […] Based on these observations, it can be concluded that the discussed compounds can be considered as non-toxic agents for subsequent design of novel drugs.
Human monocytic leukemia THP-1 cells were used for in vitro toxicity assay. Cells were obtained from the European Collection of Cell Cultures (ECACC, Salisbury, UK) and routinely cultured in RPMI 1640 (Lonza, Verviers, Belgium) medium supplemented with 10% fetal bovine serum (FBS, Sigma), 2% L-glutamine, 1% penicillin and streptomycin (Lonza, Verviers, Belgium) at 37 °C with 5% CO2. Cells were passaged at approximately one week intervals. The cytotoxicity of the compounds was determined using a WST-1 assay kit (Roche Diagnostics, Mannheim, Germany) according to the manufacturer’s instructions. The tested compounds were dissolved in DMSO and added in five increasing concentrations (0.37, 1.1, 3.3, 10, and 30 μM) to the cell suspension in the culture RPMI 1640 medium. The maximum concentration of DMSO (Sigma) in the assays never exceeded 0.1%. Subsequently, the cells were incubated for 24 h at 37 °C with 5% CO2. For WST-1 assays, cells were seeded into 96-well plates (5 × 10^4 cells/well in 100 μL culture medium) in triplicate in serum-free RPMI 1640 medium, and measurements were taken 24 h after the treatment with the compounds. The median inhibition concentration values, IC50, were deduced through the production of a dose-response curve. All data were evaluated using the GraphPad Prism 5.00 software (GraphPad Software, San Diego, CA, USA).

T1 sequence (P81908 whole entry): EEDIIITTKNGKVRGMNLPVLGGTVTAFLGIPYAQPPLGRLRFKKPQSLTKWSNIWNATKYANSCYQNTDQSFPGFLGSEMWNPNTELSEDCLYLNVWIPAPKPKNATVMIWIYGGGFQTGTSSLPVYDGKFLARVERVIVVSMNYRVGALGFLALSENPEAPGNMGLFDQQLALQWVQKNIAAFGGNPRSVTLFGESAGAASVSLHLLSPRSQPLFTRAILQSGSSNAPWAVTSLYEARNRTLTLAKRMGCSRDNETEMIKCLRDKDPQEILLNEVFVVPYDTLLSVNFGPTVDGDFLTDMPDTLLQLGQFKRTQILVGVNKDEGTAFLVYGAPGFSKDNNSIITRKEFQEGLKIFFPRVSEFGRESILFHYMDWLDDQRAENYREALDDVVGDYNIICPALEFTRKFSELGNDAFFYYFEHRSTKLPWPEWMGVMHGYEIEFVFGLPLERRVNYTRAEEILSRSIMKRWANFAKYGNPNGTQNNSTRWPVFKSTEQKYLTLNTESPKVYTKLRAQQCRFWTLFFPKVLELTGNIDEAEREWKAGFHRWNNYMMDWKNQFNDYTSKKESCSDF
T2 sequence (O42275 24-633): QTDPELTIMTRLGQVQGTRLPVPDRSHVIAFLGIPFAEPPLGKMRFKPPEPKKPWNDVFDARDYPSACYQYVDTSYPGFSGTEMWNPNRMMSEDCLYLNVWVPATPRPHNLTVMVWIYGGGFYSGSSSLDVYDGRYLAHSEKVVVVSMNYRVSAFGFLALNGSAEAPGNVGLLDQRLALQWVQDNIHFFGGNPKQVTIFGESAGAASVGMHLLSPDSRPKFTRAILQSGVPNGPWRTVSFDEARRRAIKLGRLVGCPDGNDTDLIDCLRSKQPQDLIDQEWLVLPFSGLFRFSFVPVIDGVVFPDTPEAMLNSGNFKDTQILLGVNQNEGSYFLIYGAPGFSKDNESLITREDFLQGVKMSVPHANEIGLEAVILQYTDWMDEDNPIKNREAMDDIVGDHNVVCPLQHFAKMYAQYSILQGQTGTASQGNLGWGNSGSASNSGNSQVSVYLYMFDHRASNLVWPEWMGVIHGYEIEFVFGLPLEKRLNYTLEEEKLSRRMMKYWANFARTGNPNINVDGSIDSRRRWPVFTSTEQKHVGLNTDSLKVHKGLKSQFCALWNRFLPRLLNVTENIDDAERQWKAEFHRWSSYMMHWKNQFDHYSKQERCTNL

| SMILES | IC50 (BChE from equine serum) [µM] | SI (index selectivity) = IC50 (AChE)/IC50 (BChE) (BChE from equine serum) | IC50 [1] [µM] | IC50 [2] [µM] | selectivity to BChE (in words) (BChE from equine serum; BChE vs AChE) |
| --- | --- | --- | --- | --- | --- |
| O=C(Nc1ccccc1)[C@@H]1CCCN1C(=O)OCc1ccccc1 [Compound 1, Benzyl (2S)-2-(phenylcarbamoyl)pyrrolidine-1-carboxylate] | 55.6 ± 1.01 | 1.91 | 106 ± 2.2 | > 30 | – |
| COc1ccccc1NC(=O)[C@@H]1CCCN1C(=O)OCc1ccccc1 [Compound 2a, Benzyl (2S)-2-[(2-methoxyphenyl)carbamoyl]pyrrolidine-1-carboxylate] | 51.5 ± 0.75 | 2.54 | 131 ± 1.29 | > 30 | – |
| COc1cccc(NC(=O)[C@@H]2CCCN2C(=O)OCc2ccccc2)c1 [Compound 2b, Benzyl (2S)-2-[(3-methoxyphenyl)carbamoyl]pyrrolidine-1-carboxylate] | 58.47 ± 0.42 | 2.16 | 126 ± 2.79 | > 30 | – |
| COc1ccc(NC(=O)[C@@H]2CCCN2C(=O)OCc2ccccc2)cc1 [Compound 2c, Benzyl (2S)-2-[(4-methoxyphenyl)carbamoyl]pyrrolidine-1-carboxylate] | 117.4 ± 0.45 | 0.93 | 109.4 ± 0.22 | > 30 | – |
| Cc1ccccc1NC(=O)[C@@H]1CCCN1C(=O)OCc1ccccc1 [Compound 3a, Benzyl (2S)-2-[(2-methylphenyl)carbamoyl]pyrrolidine-1-carboxylate] | 98.3 ± 5.88 | 0.63 | 61.9 ± 1.35 | > 30 | – |
| Cc1cccc(NC(=O)[C@@H]2CCCN2C(=O)OCc2ccccc2)c1 [Compound 3b, Benzyl (2S)-2-[(3-methylphenyl)carbamoyl]pyrrolidine-1-carboxylate] | 115 ± 4.83 | 0.71 | 81.06 ± 0.03 | > 30 | – |
| Cc1ccc(NC(=O)[C@@H]2CCCN2C(=O)OCc2ccccc2)cc1 [Compound 3c, Benzyl (2S)-2-[(4-methylphenyl)carbamoyl]pyrrolidine-1-carboxylate] | 153 ± 2.29 | 0.81 | 123.4 ± 0.44 | > 30 | – |
| O=C(Nc1ccccc1F)[C@@H]1CCCN1C(=O)OCc1ccccc1 [Compound 4a, Benzyl (2S)-2-[(2-fluorophenyl)carbamoyl]pyrrolidine-1-carboxylate] | 60 | 0.86 | 51.9 ± 0.76 | > 30 | – |
| O=C(Nc1cccc(F)c1)[C@@H]1CCCN1C(=O)OCc1ccccc1 [Compound 4b, Benzyl (2S)-2-[(3-fluorophenyl)carbamoyl]pyrrolidine-1-carboxylate] | 34.61 ± 0.11 | 2.02 | 69.88 ± 0.21 | > 30 | – |
| O=C(Nc1ccc(F)cc1)[C@@H]1CCCN1C(=O)OCc1ccccc1 [Compound 4c, Benzyl (2S)-2-[(4-fluorophenyl)carbamoyl]pyrrolidine-1-carboxylate] | 58.1 ± 1.39 | 1.50 | 87.2 ± 1 | > 30 | – |
| O=C(Nc1ccccc1Cl)[C@@H]1CCCN1C(=O)OCc1ccccc1 [Compound 5a, Benzyl (2S)-2-[(2-chlorophenyl)carbamoyl]pyrrolidine-1-carboxylate] | 53.47 ± 0.52 | 0.87 | 46.4 ± 1.05 | > 30 | – |
| O=C(Nc1cccc(Cl)c1)[C@@H]1CCCN1C(=O)OCc1ccccc1 [Compound 5b, Benzyl (2S)-2-[(3-chlorophenyl)carbamoyl]pyrrolidine-1-carboxylate] | 64.2 ± 7.14 | 0.75 | 48.27 ± 0.11 | > 30 | – |
| O=C(Nc1ccc(Cl)cc1)[C@@H]1CCCN1C(=O)OCc1ccccc1 [Compound 5c, Benzyl (2S)-2-[(4-chlorophenyl)carbamoyl]pyrrolidine-1-carboxylate] | 147.3 ± 1.18 | 0.52 | 77.3 ± 3.8 | > 30 | – |
| O=C(Nc1ccccc1Br)[C@@H]1CCCN1C(=O)OCc1ccccc1 [Compound 6a, Benzyl (2S)-2-[(2-bromophenyl)carbamoyl]pyrrolidine-1-carboxylate] | 27.4 ± 0.85 | 3.07 | 84.1 ± 4.39 | > 30 | greater selectivity to BChE |
| O=C(Nc1cccc(Br)c1)[C@@H]1CCCN1C(=O)OCc1ccccc1 [Compound 6b, Benzyl (2S)-2-[(3-bromophenyl)carbamoyl]pyrrolidine-1-carboxylate] | 47.68 ± 0.08 | 1.56 | 74.16 ± 0.2 | > 30 | – |
| O=C(Nc1ccc(Br)cc1)[C@@H]1CCCN1C(=O)OCc1ccccc1 [Compound 6c, Benzyl (2S)-2-[(4-bromophenyl)carbamoyl]pyrrolidine-1-carboxylate] | 28.2 ± 0.5 | 2.88 | 81.32 ± 0.67 | > 30 | – |
| O=C(Nc1ccccc1C(F)(F)F)[C@@H]1CCCN1C(=O)OCc1ccccc1 [Compound 7a, Benzyl (2S)-2-{[2-(trifluoromethyl)phenyl]carbamoyl}pyrrolidine-1-carboxylate] | 44.9 ± 1.66 | 1.63 | 73.2 ± 2.88 | > 30 | – |
| O=C(Nc1cccc(C(F)(F)F)c1)[C@@H]1CCCN1C(=O)OCc1ccccc1 [Compound 7b, Benzyl (2S)-2-{[3-(trifluoromethyl)phenyl]carbamoyl}pyrrolidine-1-carboxylate] | 39.5 ± 1.4 | 1.75 | 68.91 ± 0.06 | > 30 | – |
| O=C(Nc1ccc(C(F)(F)F)cc1)[C@@H]1CCCN1C(=O)OCc1ccccc1 [Compound 7c, Benzyl (2S)-2-{[4-(trifluoromethyl)phenyl]carbamoyl}pyrrolidine-1-carboxylate] | 75.5 ± 2.94 | 1.17 | 88.6 ± 1.6 | > 30 | – |
| O=C(Nc1ccccc1[N+](=O)[O-])[C@@H]1CCCN1C(=O)OCc1ccccc1 [Compound 8a, Benzyl (2S)-2-[(2-nitrophenyl)carbamoyl]pyrrolidine-1-carboxylate] | 48.7 ± 0.8 | 3.13 | 152.21 ± 0.01 | > 30 | – |
| O=C(Nc1cccc([N+](=O)[O-])c1)[C@@H]1CCCN1C(=O)OCc1ccccc1 [Compound 8b, Benzyl (2S)-2-[(3-nitrophenyl)carbamoyl]pyrrolidine-1-carboxylate] | 55.9 ± 0.63 | 1.16 | 65 ± 0.97 | > 30 | – |
| O=C(Nc1ccc([N+](=O)[O-])cc1)[C@@H]1CCCN1C(=O)OCc1ccccc1 [Compound 8c, Benzyl (2S)-2-[(4-nitrophenyl)carbamoyl]pyrrolidine-1-carboxylate] | 58.75 ± 0.27 | 1.44 | 84.52 ± 0.06 | > 30 | – |
